Data published in PubChem BioAssay (NCI).
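Assay format: 96-well plates, 48-hour exposure. The concentration for full growth arrest is given as TGI.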

Test system: P388/ADR leukemia
Test: NCI tumour cell line growth inhibition, 48 h

Question: `C=C(C)C(=O)NC(N)=NC#N` was tested. Which TGI did it give?
Answer: The TGI was 27.7 µM.
